Assay results from PubChem BioAssay AID330 (DTP/NCI, 2004).
Values joined by “and” are separate entries in the source; they are usually repeats but may differ in a detail not shown here. Identical values can stand only once. Toxic doses and inconclusive results are not listed. Rule for the calls: active = survival T/C of 150% or more; inactive = T/C below 125% in these data.

System: P388 leukemia ip, CD2F1 mice, survival T/C
Assay: NCI In Vivo Anticancer Drug Screen. Data for tumor model P388 Leukemia (intraperitoneal) in CD2F1 (CDF1) mice
Conditions: endpoint: median survival time, higher = longer survival
Method in brief: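 Mice carrying the transplanted tumor received test compound or vehicle. Survival was recorded in each group, and the value is the treated-group measurement divided by that of the vehicle-treated control group.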

[1] = dose: 50.0 mg/kg/injection, schedule: Q01DX005 (ip), vehicle: saline with Tween-80
[2] = dose: 100.0 mg/kg/injection, schedule: Q01DX005 (ip), vehicle: saline with Tween-80
[3] = dose: 200.0 mg/kg/injection, schedule: Q01DX005 (ip), vehicle: saline with Tween-80
[4] = dose: 60.0 mg/kg/injection, schedule: Q01DX005 (ip), vehicle: Klucel (hydroxypropylcellulose) (HPC)
[5] = dose: 100.0 mg/kg/injection, schedule: Q04DX002 (ip), vehicle: saline with Tween-80
[6] = dose: 200.0 mg/kg/injection, schedule: Q04DX002 (ip), vehicle: saline with Tween-80
[7] = dose: 400.0 mg/kg/injection, schedule: Q04DX002 (ip), vehicle: saline with Tween-80
[8] = dose: 50.0 mg/kg/injection, schedule: Q01DX005 (ip), vehicle: saline
[9] = dose: 100.0 mg/kg/injection, schedule: Q01DX005 (ip), vehicle: saline
[10] = dose: 200.0 mg/kg/injection, schedule: Q01DX005 (ip), vehicle: saline
[11] = dose: 100.0 mg/kg/injection, schedule: Q04DX003 (ip), vehicle: saline with Tween-80
[12] = dose: 200.0 mg/kg/injection, schedule: Q04DX003 (ip), vehicle: saline with Tween-80
[13] = dose: 50.0 mg/kg/injection, schedule: Q01DX005 (ip), vehicle: Klucel (hydroxypropylcellulose) (HPC)
[14] = dose: 100.0 mg/kg/injection, schedule: Q01DX005 (ip), vehicle: Klucel (hydroxypropylcellulose) (HPC)
[15] = dose: 200.0 mg/kg/injection, schedule: Q01DX005 (ip), vehicle: Klucel (hydroxypropylcellulose) (HPC)

Measured: T/C

Oc1ccccc1-c1nc2c3ccccc3c3ccccc3c2[nH]1
inactive: [1] 113 % of control | [2] 111 % of control | [3] 113 % of control

O=C1C(c2ccc3ccccc3n2)=C(O)c2ccccc21
inactive: dose: 15.0 mg/kg/injection, schedule: Q01DX005 (ip), vehicle: Klucel (hydroxypropylcellulose) (HPC) 101 % of control | dose: 30.0 mg/kg/injection, schedule: Q01DX005 (ip), vehicle: Klucel (hydroxypropylcellulose) (HPC) 96 % of control | [4] 101 % of control and 88 % of control

NC(=O)C1C(C(N)=O)C2C3C=CC(C4C(=O)NC(=O)C34)C12 (stereo not given)
inactive: [5] 102 % of control | [6] 109 % of control | [7] 111 % of control

CC1(C)CCC(C2=CC(=O)c3c(O)ccc(O)c3C2=O)O1 (stereo not given)
inactive: dose: 3.12 mg/kg/injection, schedule: Q01DX005 (ip), vehicle: saline with Tween-80 103 % of control | dose: 6.25 mg/kg/injection, schedule: Q01DX005 (ip), vehicle: saline with Tween-80 108 % of control | dose: 12.5 mg/kg/injection, schedule: Q01DX005 (ip), vehicle: saline with Tween-80 99 % of control

C[N+](C)(C)c1ncnc2c1ncn2C1CC(O)C(CO)O1 (stereo not given)
inactive: [8] 95 % of control | [9] 98 % of control | [10] 101 % of control

CNC(=O)OCc1snc(-c2ccccc2)c1COC(=O)NC
inactive: dose: 12.5 mg/kg/injection, schedule: Q01DX005 (ip), vehicle: distilled water + Tween-80 99 % of control | dose: 25.0 mg/kg/injection, schedule: Q01DX005 (ip), vehicle: distilled water + Tween-80 101 % of control | dose: 50.0 mg/kg/injection, schedule: Q01DX005 (ip), vehicle: distilled water + Tween-80 99 % of control | dose: 100.0 mg/kg/injection, schedule: Q01DX005 (ip), vehicle: distilled water + Tween-80 96 % of control | dose: 200.0 mg/kg/injection, schedule: Q01DX005 (ip), vehicle: distilled water + Tween-80 108 % of control

CCCCCCC(=O)/C=C/c1cc(OC)c(OC)c(OC)c1
inactive: dose: 50.0 mg/kg/injection, schedule: Q01DX009 (ip), vehicle: saline with Tween-80 101 % of control | dose: 100.0 mg/kg/injection, schedule: Q01DX009 (ip), vehicle: saline with Tween-80 96 % of control | dose: 200.0 mg/kg/injection, schedule: Q01DX009 (ip), vehicle: saline with Tween-80 92 % of control

Cc1cc(-c2ccccc2)[s+]s1
inactive: dose: 12.5 mg/kg/injection, schedule: Q01DX009 (ip), vehicle: distilled water + Tween-80 101 % of control | dose: 25.0 mg/kg/injection, schedule: Q01DX009 (ip), vehicle: distilled water + Tween-80 115 % of control | dose: 50.0 mg/kg/injection, schedule: Q01DX009 (ip), vehicle: distilled water + Tween-80 117 % of control | dose: 100.0 mg/kg/injection, schedule: Q01DX009 (ip), vehicle: distilled water + Tween-80 111 % of control | dose: 200.0 mg/kg/injection, schedule: Q01DX009 (ip), vehicle: distilled water + Tween-80 117 % of control

N=C(N)c1ccc(O)cc1
inactive: [8] 102 % of control | [9] 111 % of control | [10] 112 % of control

O=C1c2cccc3c([N+](=O)[O-])ccc(c23)C(=O)N1CCCN1CCOCC1
inactive: [1] 114 % of control | [2] 116 % of control

C(=C1c2ccccc2-c2ccccc21)c1ccccc1
inactive: [11] 100 % of control | [12] 100 % of control | dose: 400.0 mg/kg/injection, schedule: Q04DX003 (ip), vehicle: saline with Tween-80 100 % of control

COC(=O)CCn1nc(-c2ccccc2)c(-c2ccccc2)c(S(C)(=O)=O)c1=O
inactive: dose: 25.0 mg/kg/injection, schedule: Q04DX002 (ip), vehicle: distilled water + Tween-80 95 % of control | dose: 50.0 mg/kg/injection, schedule: Q04DX002 (ip), vehicle: distilled water + Tween-80 92 % of control | dose: 200.0 mg/kg/injection, schedule: Q04DX002 (ip), vehicle: distilled water + Tween-80 90 % of control

COc1ccc(-c2nnc3cc(C)n4nnnc4n23)cc1OC
inactive: [13] 100 % of control | [14] 96 % of control | [15] 94 % of control

CC(=O)N1C(=O)CC23c4cccc([N+](=O)[O-])c4C(=O)N2CCCN13 (stereo not given)
inactive: [4] 97 % of control | dose: 120.0 mg/kg/injection, schedule: Q01DX005 (ip), vehicle: Klucel (hydroxypropylcellulose) (HPC) 97 % of control | dose: 240.0 mg/kg/injection, schedule: Q01DX005 (ip), vehicle: Klucel (hydroxypropylcellulose) (HPC) 91 % of control

CC(C)CCCN(CCCC(C)C)CC(O)c1cc2c(c3ccccc13)CCCC2 (stereo not given)
inactive: [1] 113 % of control | [2] 103 % of control | [3] 113 % of control

ClC(Cl)(Cl)C1=NC2=C(Br)C=C(Br)C3=NC(C(Br)(Br)Br)=NC(=N1)N32
inactive: dose: 60.0 mg/kg/injection, schedule: Q01DX005 (ip), vehicle: Klucel + Tween-80 105 % of control | dose: 120.0 mg/kg/injection, schedule: Q01DX005 (ip), vehicle: Klucel + Tween-80 110 % of control

Brc1cccc(C(Nc2nncs2)Nc2nncs2)c1
inactive: dose: 50.0 mg/kg/injection, schedule: Q04DX002 (ip), vehicle: saline with Tween-80 91 % of control | [5] 92 % of control and 95 % of control | [6] 100 % of control and 111 % of control | [7] 124 % of control

COC(=O)N1c2ccccc2N(C(=O)OC)C1C#N
inactive: dose: 60.0 mg/kg/injection, schedule: Q01DX005 (ip), vehicle: saline with Tween-80 108 % of control | dose: 120.0 mg/kg/injection, schedule: Q01DX005 (ip), vehicle: saline with Tween-80 98 % of control | dose: 240.0 mg/kg/injection, schedule: Q01DX005 (ip), vehicle: saline with Tween-80 112 % of control

c1ccc2c(c1)[nH]c1cc3ccncc3cc12
inactive: dose: 50.0 mg/kg/injection, schedule: Q04DX003 (ip), vehicle: saline with Tween-80 94 % of control | [11] 91 % of control | [12] 87 % of control

c1ccc(-c2cnn3nnnc3n2)cc1
inactive: dose: 100.0 mg/kg/injection, schedule: Q01DX001 (ip), vehicle: saline 104 % of control | dose: 200.0 mg/kg/injection, schedule: Q01DX001 (ip), vehicle: saline 102 % of control | dose: 400.0 mg/kg/injection, schedule: Q01DX001 (ip), vehicle: saline 101 % of control

COc1ccc(OC(N)=O)c2ccccc12
inactive: dose: 25.0 mg/kg/injection, schedule: Q01DX001 (ip), vehicle: Klucel (hydroxypropylcellulose) (HPC) 100 % of control | dose: 50.0 mg/kg/injection, schedule: Q01DX001 (ip), vehicle: Klucel (hydroxypropylcellulose) (HPC) 100 % of control | dose: 100.0 mg/kg/injection, schedule: Q01DX001 (ip), vehicle: Klucel (hydroxypropylcellulose) (HPC) 108 % of control

CCN(CC)CCN1c2ccccc2Sc2ccc3ccccc3c21
inactive: dose: 50.0 mg/kg/injection, schedule: Q01DX005 (ip), vehicle: saline + Tween-80 + alcohol 107 % of control | dose: 100.0 mg/kg/injection, schedule: Q01DX005 (ip), vehicle: saline + Tween-80 + alcohol 105 % of control | dose: 200.0 mg/kg/injection, schedule: Q01DX005 (ip), vehicle: saline + Tween-80 + alcohol 102 % of control

CCC(c1ccc(OC)cc1)C(NCC(=O)NNC(=S)Nc1ccccc1)c1ccc(OC)cc1 (stereo not given)
inactive: dose: 100.0 mg/kg/injection, schedule: Q01DX001 (ip), vehicle: saline with Tween-80 92 % of control | dose: 200.0 mg/kg/injection, schedule: Q01DX001 (ip), vehicle: saline with Tween-80 101 % of control | dose: 400.0 mg/kg/injection, schedule: Q01DX001 (ip), vehicle: saline with Tween-80 108 % of control

CC(/C=N/NC1=NCCN1)=N/NC1=NCCN1
inactive: [8] 102 % of control | [9] 98 % of control | [10] 99 % of control

O=C1CN2Cc3c(sc4c3CCCC4)N=C2N1
inactive: [13] 106 % of control | [14] 102 % of control | [15] 99 % of control

O=C1NC(O)c2ccccc2O1 (stereo not given)
inactive: dose: 50.0 mg/kg/injection, schedule: Q01DX009 (ip), vehicle: saline 106 % of control | dose: 100.0 mg/kg/injection, schedule: Q01DX009 (ip), vehicle: saline 123 % of control

CC1CCC2(C(=O)O)CCC3(C)C(=CCC4C5(C)CCC(O)C(C)(C)C5CCC43C)C2C1C (stereo not given)
inactive: dose: 22.0 mg/kg/injection, schedule: Q01DX010 (ip), vehicle: acetone 108 % of control | dose: 35.0 mg/kg/injection, schedule: Q01DX010 (ip), vehicle: acetone 95 % of control

CN1CC(F)OC(F)(F)C1 (stereo not given)
inactive: [8] 102 % of control | [9] 100 % of control | [10] 100 % of control
